Data: patent publication US20260085062A1, “NOVEL COMPOUNDS AS CK2 INHIBITORS” (Cambridge Enterprise Limited, priority 2022, published 2026)

Assays:
CK2α = target: T1, CK2α (Homo sapiens, UniProt P68400); experiment: Biochemical assay for inhibitors of CK2α kinase activity (ADP-Glo); details: 0.2 nM CK2α, 50 μM peptide substrate, 15 μM ATP, read-out: Assay 1: CK2α Enzyme IC50
T1 construct: CK2α (residues 2-329) was produced in Escherichia coli BL21 (DE3) for kinase activity screening; His6 (N, cleaved yes); made in house; host or cells: Escherichia coli BL21 (DE3)
T1 sequence (P68400 2-329): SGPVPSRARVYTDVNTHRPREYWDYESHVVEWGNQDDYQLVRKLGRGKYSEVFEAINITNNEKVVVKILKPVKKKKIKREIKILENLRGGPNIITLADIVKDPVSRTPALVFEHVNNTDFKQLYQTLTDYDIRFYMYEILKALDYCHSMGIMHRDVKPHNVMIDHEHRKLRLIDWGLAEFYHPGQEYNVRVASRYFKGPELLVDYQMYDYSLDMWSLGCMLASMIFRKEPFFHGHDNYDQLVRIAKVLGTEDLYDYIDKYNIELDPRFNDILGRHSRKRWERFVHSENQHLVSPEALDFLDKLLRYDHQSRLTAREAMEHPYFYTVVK

CLK2 = target: T2, CLK2 (Homo sapiens, UniProt P49760); experiment: Biochemical assay for inhibitors of CLK2 kinase activity (ADP-Glo); details: 20 nM CLK2, 50 μM peptide substrate, 100 μM ATP, read-out: Assay 2: CLK2 Enzyme IC50
T2 construct: purchased Carna Biosciences 04-127

intracellular CK2α = target: T3, intracellular CK2α (Homo sapiens, UniProt P19784); experiment: Cell-based NanoBRET assay for inhibitor binding to intracellular CK2α; details: HCT116 cells transiently transfected with CSNK2A2-NanoLuc fusion vector; Tracer K-5; 2 h; read-out: Assay 3: NanoBRET ™ assay for binding to intracellular CK2α
T3 construct: host or cells: HCT116 (ATCC CCL-247)
How it was run: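 Apparent affinity came from BRET ratio (acceptor/donor ×1,000), with donor read at 450 nm and acceptor at 610 or 630 nm. Compounds competed off a tracer added at fixed concentration to cells carrying a NanoLuc-CK2α fusion.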

T3 sequence (P19784 whole entry, the tested form may be a part): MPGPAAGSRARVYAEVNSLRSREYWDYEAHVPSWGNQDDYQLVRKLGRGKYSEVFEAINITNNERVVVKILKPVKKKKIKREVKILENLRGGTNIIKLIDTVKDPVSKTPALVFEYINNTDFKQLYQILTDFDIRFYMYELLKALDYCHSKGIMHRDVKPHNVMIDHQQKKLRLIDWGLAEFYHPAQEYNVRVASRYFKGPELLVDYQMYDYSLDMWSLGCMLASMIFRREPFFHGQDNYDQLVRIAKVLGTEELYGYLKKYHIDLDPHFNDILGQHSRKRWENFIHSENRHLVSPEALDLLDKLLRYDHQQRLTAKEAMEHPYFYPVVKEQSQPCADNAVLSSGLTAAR
T2 sequence (P49760 whole entry): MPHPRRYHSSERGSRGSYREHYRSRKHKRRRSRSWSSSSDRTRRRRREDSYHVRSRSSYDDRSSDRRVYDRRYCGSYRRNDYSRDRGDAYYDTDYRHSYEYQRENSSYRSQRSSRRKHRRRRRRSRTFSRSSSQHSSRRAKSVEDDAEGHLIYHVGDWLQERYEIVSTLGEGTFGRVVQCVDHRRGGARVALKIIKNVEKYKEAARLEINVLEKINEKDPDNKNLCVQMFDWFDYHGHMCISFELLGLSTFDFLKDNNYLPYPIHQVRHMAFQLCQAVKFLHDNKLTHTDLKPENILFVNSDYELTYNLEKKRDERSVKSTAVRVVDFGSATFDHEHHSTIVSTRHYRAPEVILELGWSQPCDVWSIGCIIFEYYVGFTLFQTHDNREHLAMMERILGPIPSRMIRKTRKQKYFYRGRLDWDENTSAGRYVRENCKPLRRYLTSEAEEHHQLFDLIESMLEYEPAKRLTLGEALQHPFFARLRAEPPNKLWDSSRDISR

IC50 (CK2α) [µM] | IC50 (CLK2) [µM] | IC50 (intracellular CK2α) [µM] | SMILES
0.0505 | 2.15 | 2.52 | N#CCc1cc(CNCCCCOC2CN(c3cc(-c4ccnnc4)cc4[nH]ncc34)C2)cc(C(F)(F)F)c1 [Example 114, 2-(3-(((4-((1-(6-(pyridazin-4-yl)-1H-indazol-4-yl)azetidin-3-yl)oxy)butyl)amino)methyl)-5-(trifluoromethyl)phenyl)acetonitrile]
0.00095 | 0.123 | 6.38 | N#Cc1cc(CNCCC(=O)NCCCNc2cc(-n3cnnc3)cc3[nH]ncc23)ccc1C1CC1 [Example 45, N-(3-((6-(4H-1,2,4-triazol-4-yl)-1H-indazol-4-yl)amino)propyl)-3-((3-cyano-4-cyclopropylbenzyl)amino)propanamide]
0.00032 | 0.526 | 0.753 | O=C(CCNCc1ccc(OC(F)(F)F)c(Cl)c1)NCCCNc1cc(-c2cc[nH]c(=O)c2)cc2[nH]ncc12 [Example 31, 3-((3-chloro-4-(trifluoromethoxy)benzyl)amino)-N-(3-((6-(2-oxo-1,2-dihydropyridin-4-yl)-1H-indazol-4-yl)amino)propyl)propanamide]
0.17 | 24.7 | > 50 | N#CCc1cc(CNCCCCOC2CN(c3cc(-n4cnnc4)cc4[nH]nnc34)C2)cc(OC(F)(F)F)c1 [Example 154, 2-(3-(((4-((1-(6-(4H-1,2,4-triazol-4-yl)-1H-benzo[d][1,2,3]triazol-4-yl)azetidin-3-yl)oxy)butyl)amino)methyl)-5-(trifluoromethoxy)phenyl)acetonitrile]
0.00143 | 0.0517 | 3.89 | O=C(CCNCc1cccc(Cl)c1)NCCCNc1cc(-n2cnnc2)cc2[nH]ncc12 [Example 13, N-(3-((6-(4H-1,2,4-triazol-4-yl)-1H-indazol-4-yl)amino)propyl)-3-((3-chlorobenzyl)amino)propanamide]
0.115 | 6.46 | 9.91 | Cc1cc(CC#N)cc(CNCCCCOC2CN(c3cc(-c4ccnnc4)cc4[nH]ncc34)C2)c1 [Example 115, 2-(3-methyl-5-(((4-((1-(6-(pyridazin-4-yl)-1H-indazol-4-yl)azetidin-3-yl)oxy)butyl)amino)methyl)phenyl)acetonitrile]
0.00659 | 3.15 | 0.387 | FC(F)(F)c1ccc2[nH]c(CNCCCCOCCOc3cc(-c4ccnnc4)cc4[nH]ncc34)cc2c1 [Example 56, 4-(2-((6-(pyridazin-4-yl)-1H-indazol-4-yl)oxy)ethoxy)-N-((5-(trifluoromethyl)-1H-indol-2-yl)methyl)butan-1-amine]
0.0007 | 0.431 | 0.294 | CN(CCCCNCc1ccc(OC(F)(F)F)c(Cl)c1)CCNc1cc(-n2cnnc2)cc2[nH]ncc12 [Example 72, N1-(2-((6-(4H-1,2,4-triazol-4-yl)-1H-indazol-4-yl)amino)ethyl)-N4-(3-chloro-4-(trifluoromethoxy)benzyl)-N1-methylbutane-1,4-diamine]
0.0109 | 0.498 | 2.36 | FC(F)(F)c1ccc2[nH]c(CNCCCCOC3CN(c4cc(-c5cnoc5)cc5[nH]ncc45)C3)cc2c1 [Example 139, 4-((1-(6-(isoxazol-4-yl)-1H-indazol-4-yl)azetidin-3-yl)oxy)-N-((5-(trifluoromethyl)-1H-indol-2-yl)methyl)butan-1-amine]
0.00076 | 0.195 | 0.0149 | C[C@@H](CCCOCCNc1cc(-c2cnnc(O)c2)cc2[nH]ncc12)NCc1cc(CC#N)cc(OC(F)(F)F)c1 [Example 194, (S)-2-(3-(((5-(2-((6-(6-hydroxypyridazin-4-yl)-1H-indazol-4-yl)amino)ethoxy)pentan-2-yl)amino)methyl)-5-(trifluoromethoxy)phenyl)acetonitrile]
0.00264 | 0.0186 | 0.735 | COc1n[nH]cc1-c1cc(NCCCNC(=O)CCNCc2ccc(-c3ccccc3)c(Cl)c2)c2cn[nH]c2c1 [Example 76, 3-(((2-chloro-[1,1′-biphenyl]-4-yl)methyl)amino)-N-(3-((6-(3-methoxy-1H-pyrazol-4-yl)-1H-indazol-4-yl)amino)propyl)propanamide]
0.00769 | 0.568 | 8.55 | Cc1nc(-c2cc(NCCCNC(=O)CCNCc3ccc(-c4ccccc4)c(Cl)c3)c3cn[nH]c3c2)c[nH]1 [Example 9, 3-(((2-chloro-[1,1′-biphenyl]-4-yl)methyl)amino)-N-(3-((6-(2-methyl-1H-imidazol-4-yl)-1H-indazol-4-yl)amino)propyl)propanamide]
0.0382 | 0.594 | 2.96 | OCc1cc(CNC2CC(COCCOc3cc(-c4cnnc(O)c4)cc4[nH]ncc34)C2)cc(OC(F)(F)F)c1 (stereo not drawn) [Example 200]
0.00363 | 1.01 | 0.242 | O=C(CCNCc1ccc(-c2ccccc2)c(Cl)c1)NCCCNc1cc(-n2cncn2)cc2[nH]ncc12 [Example 4, N-(3-((6-(1H-1,2,4-triazol-1-yl)-1H-indazol-4-yl)amino)propyl)-3-(((2-chloro-[1,1′-biphenyl]-4-yl)methyl)amino)propanamide]
0.00053 | 0.121 | 0.792 | Cn1c(CNCCC(=O)NCCCNc2cc(-n3cnnc3)cc3[nH]ncc23)cc2cc(C(F)(F)F)ccc21 [Example 38, N-(3-((6-(4H-1,2,4-triazol-4-yl)-1H-indazol-4-yl)amino)propyl)-3-(((1-methyl-5-(trifluoromethyl)-1H-indol-2-yl)methyl)amino)propanamide]
0.256 | 1.52 | > 50 | O=C(CCOCCCNCc1ccc(OC(F)(F)F)c(Cl)c1)Nc1cc(-n2cnnc2)cc2[nH]ncc12 [Example 70, N-(6-(4H-1,2,4-triazol-4-yl)-1H-indazol-4-yl)-3-(3-((3-chloro-4-(trifluoromethoxy)benzyl)amino)propoxy)propanamide]
0.0124 | 0.301 | 0.0547 | C[C@@H](CCCOCCNc1cc(-c2cnoc2)cc2[nH]ncc12)NCc1cc(OC(F)(F)F)cc(C(N)=O)c1 [Example 196, (S)-3-(((5-(2-((6-(isoxazol-4-yl)-1H-indazol-4-yl)amino)ethoxy)pentan-2-yl)amino)methyl)-5-(trifluoromethoxy)benzamide]
0.00064 | 0.0812 | 0.208 | O=C(CCNCc1ccc(OC(F)(F)F)c(Cl)c1)NCCCNc1cc(-c2cn[nH]c(=O)c2)cc2[nH]ncc12 [Example 168, 3-((3-chloro-4-(trifluoromethoxy)benzyl)amino)-N-(3-((6-(6-oxo-1,6-dihydropyridazin-4-yl)-1H-indazol-4-yl)amino)propyl)propanamide]

SMILES | IC50 (CK2α) [µM] | IC50 (CLK2) [µM] | IC50 (intracellular CK2α) [µM]
CNc1n[nH]c2cc(-n3cnnc3)cc(NCCOCCCCNCc3cc(F)c(OC(F)(F)F)c(F)c3)c12 [Example 190, N4-(2-(4-((3,5-difluoro-4-(trifluoromethoxy)benzyl)amino)butoxy)ethyl)-N3-methyl-6-(4H-1,2,4-triazol-4-yl)-1H-indazole-3,4-diamine] | 0.00145 | 1.1 | 0.074
COC(=O)c1cc(NCCOCCCCNCc2cc3cc(C(F)(F)F)ccc3[nH]2)c2cn[nH]c2c1 [Example 84, methyl4-((2-(4-(((5-(trifluoromethyl)-1H-indol-2-yl)methyl)amino)butoxy)ethyl)amino)-1H-indazole-6-carboxylate] | 0.395 | 10.5 | 36.5
FC(F)(F)c1ccc2[nH]c(CNCCCCOCCNc3cc(-c4ccnnc4)cc4[nH]nnc34)cc2c1 [Example 100, 6-(pyridazin-4-yl)-N-(2-(4-(((5-(trifluoromethyl)-1H-indol-2-yl)methyl)amino)butoxy)ethyl)-1H-benzo[d][1,2,3]triazol-4-amine] | 0.0223 | 22.9 | 1.41
Clc1ccc2cc(CNCCCCOCCNc3cc(-n4cnnc4)cc4[nH]ncc34)[nH]c2c1 [Example 52, N-(2-(4-(((6-chloro-1H-indol-2-yl)methyl)amino)butoxy)ethyl)-6-(4H-1,2,4-triazol-4-yl)-1H-indazol-4-amine] | 0.00143 | 0.0384 | 0.294
COC(=O)CCc1cc(NCCOCCCCNCc2cc3cc(C(F)(F)F)ccc3[nH]2)c2cn[nH]c2c1 [Example 88, methyl 3-(4-((2-(4-(((5-(trifluoromethyl)-1H-indol-2-yl)methyl)amino)butoxy)ethyl)amino)-1H-indazol-6-yl)propanoate] | > 1 | 41.3 | > 50
Cn1c(CNCCCCOCCNc2cc(-n3cnnc3)cc3[nH]ncc23)nc2ccc(Cl)cc21 [Example 68, N-(2-(4-(((6-chloro-1-methyl-1H-benzo[d]imidazol-2-yl)methyl)amino)butoxy)ethyl)-6-(4H-1,2,4-triazol-4-yl)-1H-indazol-4-amine] | 0.136 | 0.566 | 18.7
